Data: publication PMC5814186, “Identification and characterization of novel enhanced cell penetrating peptides for anti-cancer cargo delivery” (Oncotarget, 2017)
No end group written: not given here.

How the values were obtained:
[1] = Stability to protease degradation in human serum; details: 37°C, different periods of time up to 24 h, triplicate; for stability in human serum (percentage of intact peptide), shuttles associated to the cargo PP2A/SET, compared to the shuttle without cargo: MS (MALDI-TOF)
Description: We further analyzed the stability to proteases degradation of the shuttles in human serum upon incubation at 37°C for different periods of time. All the shuttles were incubated with human serum and the resistance to proteases degradation analyzed by HPLC-MS.
Figure 7 Stability of the new generated shuttles in human serum (A) The shuttles were incubated at 37°C in human serum for different periods of time and their integrity (percentage of intact peptide) was analyzed by mass spectrometry (MS). Every measurement was performed in triplicate. Standard deviation is shown. (B) The shuttles Tat, Penetatin and R8 were incubated as above and the integrity was analyzed by MS. Every measurement was performed in triplicate.
For this, the new generated bi-functional peptides (shuttles associated to the cargo PP2A/SET) were incubated with human serum for different periods of time.
Figure 9 Stability in human serum of the shuttles associated to a cargo (PP2A/SET binding site) The shuttles associated to the cargo PP2A/SET were incubated at 37°C in human serum for different periods of time and their integrity (percentage of intact peptide) was analyzed by mass spectrometry (MS). Measurements were performed in triplicate and standard deviation is shown.
Peptides were incubated at 37°C in 250 ml of human serum for different periods of time. Samples were collected and peptides degradation stopped by freezing. Peptides were extracted from samples using the Proteo Miner Protein Enrichment System (Bio-Rad). Peptide integrity (percentage of intact peptide) was analyzed by mass spectrometry (MS) using MALDI-TOF (Brucker Autoflex II) following their standard protocols. Measurements were performed in triplicate. MS data were analyzed using appropriate software (Clinprot tools, Flex analysis, Brucker).

[2] = cited from earlier work
From the text: Electrostatic interactions between the […] in the cell membrane surface are important for the internalization. […] When tryptophan residues were replaced by leucine residues, the peptide was not internalized.

[3] = cited from earlier work; remark: listed apart in the source
From the text: We have recently published the use of a CPP named Mut3DPT [15, 16]. […] We decided to generate new CPPs with enhanced penetration and stability, compared to the original Mut3DPT shuttle and keeping equilibrium among penetration, solubility and toxicity.

| Compound | stability in human serum (percentage of intact peptide), shuttles associated to the cargo PP2A/SET, compared to the shuttle without cargo [1] | further results |
| --- | --- | --- |
| N=C(N)NCCC[C@H](NC(=O)[C@H](CCCNC(=N)N)NC(=O)[C@H](CCCNC(=N)N)NC(=O)[C@H](CCCNC(=N)N)NC(=O)[C@H](CCCNC(=N)N)NC(=O)[C@H](CCCNC(=N)N)NC(=O)[C@H](CCCNC(=N)N)NC(=O)[C@@H](N)CCCNC(=N)N)C(=O)O [R8] | – | stability in human serum (percentage of intact peptide), shuttles without cargo ([1]; MS (MALDI-TOF; text HPLC-MS)): degraded by serum proteases and almost not detected by HPLC-MS upon 24 h of incubation |
| KKKKKWKKWKKKETVTLLVALKVRYRERIT [Mut7DPT-PP2A/SET] | does not significantly modify the stability | – |
| KKWKKWKKWKKETVTLLVALKVRYRERIT [Mut5DPT-PP2A/SET] | slightly degradation upon 24 h | – |
| RRWRRWRRWRRETVTLLVALKVRYRERIT [Mut6DPT-PP2A/SET] | does not significantly modify the stability | – |
| RRWWRRWRR [RW9, literature CPP RW9 (…)] | – | cellular uptake / internalization [2]: good cellular uptake |
| VKKKKIKAEIKI [Mut3DPT] | – | resistance to protease degradation [3]: favourable parameters of resistance to protease degradation |
